Data on four molecules can be found in ChEMBL document CHEMBL1125225, “Delineating the pharmacophoric elements of huperzine A: importance of the unsaturated three-carbon bridge to its AChE inhibitory activity” (J Med Chem, 1991).

Bounds are passed on as bounds.

The assay deals with T1, Acetylcholinesterase (Rattus norvegicus, UniProt P37136).
T1 sequence (P37136 whole entry): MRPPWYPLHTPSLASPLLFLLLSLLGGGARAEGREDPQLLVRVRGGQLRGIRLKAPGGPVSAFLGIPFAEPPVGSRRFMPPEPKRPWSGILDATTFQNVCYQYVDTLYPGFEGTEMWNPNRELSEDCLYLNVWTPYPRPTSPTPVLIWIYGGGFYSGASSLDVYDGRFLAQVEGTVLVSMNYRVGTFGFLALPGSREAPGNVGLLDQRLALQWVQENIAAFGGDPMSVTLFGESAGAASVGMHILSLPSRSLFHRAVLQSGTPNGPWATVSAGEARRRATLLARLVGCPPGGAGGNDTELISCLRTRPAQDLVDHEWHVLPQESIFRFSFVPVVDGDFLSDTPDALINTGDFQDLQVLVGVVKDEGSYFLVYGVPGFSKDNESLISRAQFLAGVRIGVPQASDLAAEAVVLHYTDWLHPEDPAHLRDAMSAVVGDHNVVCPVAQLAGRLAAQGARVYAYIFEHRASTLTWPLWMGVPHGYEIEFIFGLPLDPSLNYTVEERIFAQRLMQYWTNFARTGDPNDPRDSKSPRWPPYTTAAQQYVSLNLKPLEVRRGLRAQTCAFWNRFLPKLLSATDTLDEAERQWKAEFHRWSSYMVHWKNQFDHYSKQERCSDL
The assay can be described thus: Compound was tested for its ability to inhibit the action of acetylcholinesterase isolated from rat brain cortex.
For the molecule `C/C=C1\CCc2[nH]c(=O)ccc2[C@]1(C)N`, the IC50 came to 338 µM. In turn, `CN(C)Cc1ccc(=O)[nH]c1` showed a concentration for half-maximal inhibition (IC50) above 900 µM. As for `NCc1ccc(O)nc1`, the figure is above 900 µM. `C/C=C1\C2CCC[C@]1(N)c1ccc(O)nc1C2` gave an IC50 of 9.82 µM. That is a single-digit micromolar value.

In general, IC50 refers to the concentration needed to halve the response being measured.
